# Columns and labels:
# human GHS-R 1a [1] = biological target: T1, human GHS-R 1a (Homo sapiens, UniProt Q92847); experiment: In vitro intracellular calcium release assay using human GHS-R 1a transfected CHO cells; assay type: cell-based; set-up: expressed in transfected cells; host or cells: CHO-K1 Chinese hamster ovary cells (ATCC No. CCL-61), transient transfection by electroporation; conditions: antagonist dissociation constant, antagonist inhibition curves in the presence of 10^-7 M ghrelin, Cheng-Prusoff equation, Fluo-4 AM
# T1 sequence (Q92847 whole entry): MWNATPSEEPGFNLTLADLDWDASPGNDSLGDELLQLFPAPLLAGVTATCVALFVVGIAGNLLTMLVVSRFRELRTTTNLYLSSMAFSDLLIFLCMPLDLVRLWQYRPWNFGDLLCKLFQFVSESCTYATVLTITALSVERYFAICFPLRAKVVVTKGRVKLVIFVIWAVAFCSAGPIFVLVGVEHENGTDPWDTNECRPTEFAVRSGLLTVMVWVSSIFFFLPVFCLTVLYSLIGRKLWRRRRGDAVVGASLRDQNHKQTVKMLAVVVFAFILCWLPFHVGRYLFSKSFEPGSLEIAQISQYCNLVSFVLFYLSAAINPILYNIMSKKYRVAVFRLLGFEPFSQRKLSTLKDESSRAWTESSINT
# human GHS-R 1a [2] = biological target: T1, human GHS-R 1a; experiment: as above; assay type: cell-based; set-up: expressed in transfected cells; host or cells: CHO-K1 Chinese hamster ovary cells (ATCC No. CCL-61), transient transfection by electroporation; conditions: for activation at 1 µM: intracellular calcium release, compound at 10^-6 M, relative to basal level (0%) and 1 μM ghrelin (100%); for EC50: agonists, dose-response curve of intracellular calcium release
# Description: The ability to properly activate the receptors is assessed for any compound of the invention by comparing the degree of activation (increase of intracellular calcium) of GHS-R 1a by the compound to be tested (at 10^−6 M concentration) to the degree of activation (increase of intracellular calcium) of GHS-R 1a by 10^−6 M ghrelin (100%) and to the basal level (0%). Such assessment can be readily performed by the skilled artisan due to his expert knowledge. The output is a percentage value for each compound to be tested. […]
# III) In Vitro Intracellular Calcium Release Assay Using Human GHS-R 1a Transfected CHO Cells
# The potential of the compounds of the invention to modulate GHS receptor activity was assessed by an in vitro intracellular Calcium release assay employing CHO cells that were transfected with human GHS-R 1a.
# Release of intracellular calcium or inhibition thereof was measured using the fluorescent calcium indicator assay (FLIPR) and Fluo-4 AM.
# CHO cells (CHO-KI Chinese Hamster Ovary cell line, ATCC No. CCL-61) were transiently transfected with human GHS-R 1a cDNA by electroporation and plated into 96-well black bottom plates (Corning 3603) (80,000 cells/well). Transient transfections were performed using the Easyject Optima Electroporator (Equibio), according to the manufacturer's instructions.
# Transfected cells were grown in Dulbecco's modified Eagle's medium without phenol red, supplemented with 10% (v/v) non-essential amino acids, […] glutamine and streptomycin-penicillin (250 μg/ml-250 u/ml) (all purchased from Cambrex) at 37° C., 5% CO2 in a humidified atmosphere for 24 hours.
# After incubation, transfected cells were washed with 150 μl Buffer A [Hanks' balanced salt solution (Sigma H-6648), 0.5% (v/v) BSA (Sigma A-7906), 20 mM CaCl2, 2.5 mM probenecid (pH 7.4, dissolved in 1 M NaOH) (Sigma P-8761)] and were then loaded with fluorescent calcium indicator Fluo-4 AM (10^−6 M) (Interchim UP72972) prepared in Buffer A, additionally containing 0.06% pluronic acid (Molecular probes P-6867) (a […] detergent which facilitates Fluo-4AM ester loading). (Loading: 100 μl per well of Buffer A containing 120 μl/ml Pluronic Acid and 1 μM Fluo-4AM was added to the cells).
# After loading with Fluo-4 AM, transfected cells were incubated for 1 hour in the dark at 37° C.
# Compounds to be tested were dissolved in Buffer A in triplicates at a concentration of 10^−6 M and distributed into another 96-well plate (Fisher Labosi A1210500).
# Following incubation, excess Fluo-4AM was removed, 100 μl of Buffer A was added to each well at room temperature and immediately removed by aspiration. This was then repeated, before adding 50 μl Buffer A to each well.
# Transfected cells were further incubated room temperature for 30 min to allow complete de-esterification of intracellular Fluo-4AM esters.
# Subsequently, both plates, the black-bottom plate containing transfected cells and the microtiter plate containing the compounds to be tested, were then placed into a temperature-regulated (25° C.) FlexStation machine (benchtop scanning fluorometer Flex Station II, Molecular Devices, Sunnyvale, Calif., USA) for fluorescence output measurements.
# Basal fluorescence output from the transfected cells was measured for 15 sec and then 50 μl of the compounds to be tested were automatically distributed into the wells containing the transfected cells. The fluorescence output was then recorded for a further 45 sec.
# Excitation and emission wavelengths were 485 nm and 525 nm, respectively. Basal fluorescence intensity of Fluo-4AM-loaded transfected cells without compounds to be tested varied between 800-1200 arbitrary units, whereas maximal fluorescence output of dye-loaded transfected cells upon incubation with the compounds to be tested varied between 5000-7000 arbitrary units and was equivalent to that achieved by stimulation of dye-loaded transfected cells with 10^−6 M ghrelin. […]
# human GHS-R 1a [3] = biological target: T1, human GHS-R 1a; experiment: GHS-R 1a receptor-ligand binding assay (membrane preparations from transfected LLC PK-1 cells); set-up: expressed in transfected cells; conditions: displacement of 125I-His9-ghrelin; plasma membranes of LLC PK-1 cells transiently transfected with human GHS-R 1a; mean of at least two independent experiments in triplicates
# Description: II) GHS-R 1a Receptor-Ligand Binding Assay (Membrane Preparations from Transfected LLC PK-1 Cells)
# The GHS-R 1a receptor binding/affinity studies were performed according to Guerlavais et al. (J. Med. Chem. 2003, 46: 1191-1203).
# Isolated plasma membranes from LLC PK-1 cells, a renal epithelial cell line originally derived from porcine kidneys (ECACC No. 86121112) (10 μg of protein), that were transiently transfected with human GHS-R 1a cDNA (Guerlavais et al., J. Med. Chem. 2003, 46: 1191-1203), were incubated in homogenization buffer HB [50 mM Tris (pH 7.3), 5 mM MgCl2, 2.5 mM EDTA, and 30 μg/mL bacitracin (Sigma)] for 60 min at 25° C. (steady-state conditions) with […] ^125I-His^9-ghrelin (Amersham) in the presence or absence of competing compounds (compounds of the invention).
# Nonspecific binding was defined using an excess (10^−6 M) of ghrelin. The binding reaction was stopped by addition of 4 mL of ice-cold HB followed by rapid filtration over Whatman GP/C filters presoaked with 0.5% polyethyleneimine to prevent excessive binding of radioligand to the filters. Filters were rinsed three times with 3 mL of icecold wash buffer [50 mM Tris (pH 7.3), 10 mM MgCl2, 2.5 mM EDTA, and 0.015% (w/v) X-100 Triton], and the radioactivity bound to membranes was measured in a gammacounter (Kontron Analytical Gamma Matic, Automatic gamma counting system).
# The concentration of test compounds required to inhibit radiolabelled ghrelin binding by 50% (IC50) was determined by fitting competitive binding curves using non-linear regression (PRISM 3.0, Graph Pad San Diego, USA).
# In the following table 2 results obtained for selected compounds of the invention are presented in comparison to an example of the prior art. IC50 values given are the mean of at least two independent experiments performed in triplicates.
Kb (human GHS-R 1a [1]) [nM],activation at 1 µM (human GHS-R 1a [2]) [%],IC50 (human GHS-R 1a [3]) [nM],EC50 (human GHS-R 1a [2]) [nM],Compound
57,3,–,–,"COc1ccc(Cn2c(CCc3ccccc3)nnc2[C@@H](Cc2c[nH]c3ccccc23)NC(=O)c2ccnnc2)c(OC)c1 [Compound 7, N-((R)-1-(4-(2,4-dimethoxybenzyl)-5-phenethyl-4H-1,2,4-triazol-3-yl)-2-(1H-indol-3-yl)ethyl)pyridazine-4-carboxamide]"
79,–,125,–,"O=C(N[C@H](Cc1c[nH]c2ccccc12)c1nnc(CCc2ccccc2)n1Cc1cccc2ccccc12)c1ccccn1 [Compound 16, N-((R)-2-(1H-indol-3-yl)-1-(4-((naphthalen-1-yl)methyl)-5-phenethyl-4H-1,2,4-triazol-3-yl)ethyl)picolinamide]"
215,0,–,–,"COc1ccc(Cn2c(CCc3c[nH]c4ccccc34)nnc2[C@H](Cc2c[nH]c3ccccc23)NC(=O)c2cnccn2)cc1 [Compound 29, N-((S)-1-(5-(2-(1H-indol-3-yl)ethyl)-4-(4-methoxybenzyl)-4H-1,2,4-triazol-3-yl)-2-(1H-indol-3-yl)ethyl)pyrazine-2-carboxamide]"
–,0,125,–,"O=C(Cc1ccccn1)N[C@H](Cc1c[nH]c2ccccc12)c1nnc(CCc2c[nH]c3ccccc23)n1Cc1cccc2ccccc12 [Compound 30, N-((R)-1-(5-(2-(1H-indol-3-yl)ethyl)-4-((naphthalen-1-yl)methyl)-4H-1,2,4-triazol-3-yl)-2-(1H-indol-3-yl)ethyl)-2-(pyridin-2-yl)acetamide]"
–,100,505,2.7,"O=C(N[C@H](Cc1c[nH]c2ccccc12)c1nnc(CCc2c[nH]c3ccccc23)n1Cc1cccc2ccccc12)[C@@H]1CCCN1 [Compound 31, (2S)-N-((R)-1-(5-(2-(1H-indol-3-yl)ethyl)-4-((naphthalen-1-yl)methyl)-4H-1,2,4-triazol-3-yl)-2-(1H-indol-3-yl)ethyl)pyrrolidine-2-carboxamide]"
–,0,122,–,"O=C(N[C@H](Cc1c[nH]c2ccccc12)c1nnc(CCc2c[nH]c3ccccc23)n1Cc1cccc2ccccc12)c1cnccn1 [Compound 32, N-((R)-1-(5-(2-(1H-indol-3-yl)ethyl)-4-((naphthalen-1-yl)methyl)-4H-1,2,4-triazol-3-yl)-2-(1H-indol-3-yl)ethyl)pyrazine-2-carboxamide]"
–,120,5,1.5,"O=C(N[C@H](Cc1c[nH]c2ccccc12)c1nnc(Cc2ccccc2)n1Cc1ccc(Cl)c(Cl)c1)C1CCNCC1 [Compound 33, N-((R)-1-(4-(3,4-dichlorobenzyl)-5-benzyl-4H-1,2,4-triazol-3-yl)-2-(1H-indol-3-yl)ethyl)piperidine-4-carboxamide]"
–,–,21.1,1,"O=C(N[C@H](Cc1c[nH]c2ccccc12)c1nnc(CCCc2c[nH]c3ccccc23)n1Cc1cccc2ccccc12)C1CCNCC1 [Compound 39, N-((R)-1-(5-(3-(1H-indol-3-yl)propyl)-4-((naphthalen-1-yl)methyl)-4H-1,2,4-triazol-3-yl)-2-(1H-indol-3-yl)ethyl)piperidine-4-carboxamide]"
–,100,500,34,"CC(C)(N)C(=O)N[C@H](Cc1c[nH]c2ccccc12)c1nnc(CCCc2c[nH]c3ccccc23)n1Cc1ccccc1 [Compound 42, N-((R)-1-(5-(3-(1H-indol-3-yl)propyl)-4-benzyl-4H-1,2,4-triazol-3-yl)-2-(1H-indol-3-yl)ethyl)-2-amino-2-methylpropanamide]"
–,–,35,6.4,"NC1(C(=O)N[C@H](Cc2c[nH]c3ccccc23)c2nnc(CCCc3c[nH]c4ccccc34)n2Cc2ccccc2)CCNCC1 [Compound 43, N-((R)-1-(5-(3-(1H-indol-3-yl)propyl)-4-benzyl-4H-1,2,4-triazol-3-yl)-2-(1H-indol-3-yl)ethyl)-4-aminopiperidine-4-carboxamide]"
–,100,600,12,"O=C(N[C@H](Cc1c[nH]c2ccccc12)c1nnc(CCCc2c[nH]c3ccccc23)n1Cc1cccc2ccccc12)C1CCCN1 (stereo partly drawn) [Compound 44, N-((R)-1-(5-(3-(1H-indol-3-yl)propyl)-4-((naphthalen-1-yl)methyl)-4H-1,2,4-triazol-3-yl)-2-(1H-indol-3-yl)ethyl)pyrrolidine-2-carboxamide]"
–,100,150,38,"COc1ccc(Cn2c(CCc3c[nH]c4ccccc34)nnc2[C@@H](Cc2c[nH]c3ccccc23)NC(=O)C2(N)CCNCC2)cc1 [Compound 47, N-((R)-1-(5-(2-(1H-indol-3-yl)ethyl)-4-(4-methoxybenzyl)-4H-1,2,4-triazol-3-yl)-2-(1H-indol-3-yl)ethyl)-4-aminopiperidine-4-carboxamide]"
–,100,12,3.9,"NC1(C(=O)N[C@H](Cc2c[nH]c3ccccc23)c2nnc(CCc3c[nH]c4ccccc34)n2Cc2cccc3ccccc23)CCNCC1 [Compound 48, N-((R)-1-(5-(2-(1H-indol-3-yl)ethyl)-4-((naphthalen-1-yl)methyl)-4H-1,2,4-triazol-3-yl)-2-(1H-indol-3-yl)ethyl)-4-aminopiperidine-4-carboxamide]"
–,100,44.5,10.1,"NC1(C(=O)N[C@H](Cc2c[nH]c3ccccc23)c2nnc(CCc3ccccc3)n2Cc2cccc3ccccc23)CCNCC1 [Compound 49, N-((R)-2-(1H-indol-3-yl)-1-(4-((naphthalen-1-yl)methyl)-5-phenethyl-4H-1,2,4-triazol-3-yl)ethyl)-4-aminopiperidine-4-carboxamide]"

# From patent US20090239877A1, “NOVEL 1,2,4-TRIAZOLE DERIVATIVES AND PROCESS OF MANUFACTURING THEREOF” (AETERNA ZENTARIS GmbH, priority 2008, published 2009)
